Measured values taken from patent publication US20260022142A1, “MACROCYCLIC IMMUNOMODULATORS” (Bristol-Myers Squibb Company, priority 2022, published 2026).
Bridge positions count the residues as written; N and C are the ends. Square brackets hold non-standard residues; d marks the D form. Peptide text beside a SMILES is read from it. * marks the point of attachment. Bip = N[C@@H](Cc1ccc(-c2ccccc2)cc1)C(=O)O; 4Pal = N[C@@H](Cc1ccncc1)C(=O)O; Carboxymethyl = O=C(O)C*; Orn = NCCC[C@H](N)C(=O)O; Pra = C#CC[C@H](N)C(=O)O; Aun = NCCCCCCCCCCC(=O)O; Dab = NCC[C@H](N)C(=O)O; Dap = NC[C@H](N)C(=O)O; AEEA = NCCOCCOCC(=O)O

Target: T1, PD-1/PD-L1 interaction (PE-labeled human PD-L1-Ig binding to Jurkat cell line over-expressing human PD-1) (Homo sapiens, UniProt Q15116)
T1 construct: expressed in transfected cells; host or cells: Jurkat
Test: Jurkat-PD-1 Cell Binding High-Content Screening Assay (CBA)
Assay type: cell-based
Conditions: Jurkat cell line over-expressing human PD-1; PE-labeled PD-L1-Ig 20 nM final; read-out: Jurkat hPD1-PDL1 IC50
Outline: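 Jurkat cells stably over-expressing human PD-1 were seeded in DMEM with 10% fetal calf serum and pre-incubated with compound for 2 h at 37° C. PE-labeled human PD-L1-Ig was then added at 20 nM final for 1 hour, after which cells were fixed with paraformaldehyde, Hoechst-stained and imaged by high-content microscopy.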

T1 sequence (Q15116 25-288): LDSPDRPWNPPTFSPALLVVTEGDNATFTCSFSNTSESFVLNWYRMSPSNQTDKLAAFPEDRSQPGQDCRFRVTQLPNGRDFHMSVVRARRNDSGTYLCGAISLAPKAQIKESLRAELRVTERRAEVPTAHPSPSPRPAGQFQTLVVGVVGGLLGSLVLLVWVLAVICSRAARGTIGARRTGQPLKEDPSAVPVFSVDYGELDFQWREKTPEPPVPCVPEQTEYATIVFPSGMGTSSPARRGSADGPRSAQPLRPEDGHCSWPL

Row | Compound | IC50 [nM]
1 | C#CC[C@H](NC(=O)COCCOCCNC(=O)[C@H](CCN)NC(=O)[C@@H]1CSCC(=O)N[C@@H](Cc2ccncc2)C(=O)N[C@@H](Cc2ccc(OCC(=O)O)cc2)C(=O)N[C@@H](CC(=O)O)C(=O)N[C@@H](Cc2c[nH]c3ccccc23)C(=O)N[C@@H](C(C)C)C(=O)N[C@@H](Cc2ccc(-c3ccccc3)cc2)C(=O)N[C@@H]([C@@H](C)CC)C(=O)N[C@@H](CCCN)C(=O)N[C@H](CC(C)C)C(=O)N[C@@H](CCN)C(=O)N[C@@H](CC(C)C)C(=O)N[C@@H](C(C)C)C(=O)N[C@@H]([C@@H](C)O)C(=O)N1)C(=O)N[C@@H](CCN)C(=O)NCCCCCCCCCCC(=O)O [Compound 1194] ({CH2CO}-[4Pal]Y(Carboxymethyl)DWV[Bip]I[Orn][dL][Dab]LVTC[Dab][AEEA][Pra][Dab][Aun]-OH; thioether N-14) | 14.8
2 | C#CC[C@H](NC(=O)COCCOCCNC(=O)[C@H](CCN)NC(=O)[C@@H]1CSCC(=O)N[C@@H](Cc2ccncc2)C(=O)N[C@@H](Cc2ccc(OCC(=O)O)cc2)C(=O)N[C@@H](CC(=O)O)C(=O)N[C@@H](Cc2c[nH]c3ccccc23)C(=O)N[C@@H](C(C)C)C(=O)N[C@@H](Cc2ccc(-c3ccccc3)cc2)C(=O)N[C@@H]([C@@H](C)CC)C(=O)N[C@@H](CCCN)C(=O)N[C@H](CC(C)C)C(=O)N[C@@H](CCN)C(=O)N[C@@H](CC(C)C)C(=O)N[C@@H](C(C)C)C(=O)N[C@@H]([C@@H](C)O)C(=O)N1)C(=O)N[C@@H](CCCN)C(=O)NCCCCCCCCCCC(=O)O [Compound 1195] ({CH2CO}-[4Pal]Y(Carboxymethyl)DWV[Bip]I[Orn][dL][Dab]LVTC[Dab][AEEA][Pra][Orn][Aun]-OH; thioether N-14) | 13.7
3 | C#CC[C@H](NC(=O)COCCOCCNC(=O)[C@H](CCN)NC(=O)[C@@H]1CSCC(=O)N[C@@H](Cc2ccncc2)C(=O)N[C@@H](Cc2ccc(OCC(=O)O)cc2)C(=O)N[C@@H](CC(=O)O)C(=O)N[C@@H](Cc2c[nH]c3ccccc23)C(=O)N[C@@H](C(C)C)C(=O)N[C@@H](Cc2ccc(-c3ccccc3)cc2)C(=O)N[C@@H]([C@@H](C)CC)C(=O)N[C@@H](CCCN)C(=O)N[C@H](CC(C)C)C(=O)N[C@@H](CCN)C(=O)N[C@@H](CC(C)C)C(=O)N[C@@H](C(C)C)C(=O)N[C@@H]([C@@H](C)O)C(=O)N1)C(=O)N[C@@H](CCCCN)C(=O)NCCCCCCCCCCC(=O)O [Compound 1196] ({CH2CO}-[4Pal]Y(Carboxymethyl)DWV[Bip]I[Orn][dL][Dab]LVTC[Dab][AEEA][Pra]K[Aun]-OH; thioether N-14) | 9.6
4 | C#CC[C@H](NC(=O)COCCOCCNC(=O)[C@H](CCN)NC(=O)[C@@H]1CSCC(=O)N[C@@H](Cc2ccncc2)C(=O)N[C@@H](Cc2ccc(OCC(=O)O)cc2)C(=O)N[C@@H](CC(=O)O)C(=O)N[C@@H](Cc2c[nH]c3ccccc23)C(=O)N[C@@H](C(C)C)C(=O)N[C@@H](Cc2ccc(-c3ccccc3)cc2)C(=O)N[C@@H]([C@@H](C)CC)C(=O)N[C@@H](CCCN)C(=O)N[C@H](CC(C)C)C(=O)N[C@@H](CCN)C(=O)N[C@@H](CC(C)C)C(=O)N[C@@H](C(C)C)C(=O)N[C@@H]([C@@H](C)O)C(=O)N1)C(=O)N[C@@H](CCCNC(=N)N)C(=O)NCCCCCCCCCCC(=O)O [Compound 1197] ({CH2CO}-[4Pal]Y(Carboxymethyl)DWV[Bip]I[Orn][dL][Dab]LVTC[Dab][AEEA][Pra]R[Aun]-OH; thioether N-14) | 14.8
5 | C#CC[C@H](NC(=O)COCCOCCNC(=O)[C@H](CCN)NC(=O)[C@@H]1CSCC(=O)N[C@@H](Cc2ccncc2)C(=O)N[C@@H](Cc2ccc(OCC(=O)O)cc2)C(=O)N[C@@H](CC(=O)O)C(=O)N[C@@H](Cc2c[nH]c3ccccc23)C(=O)N[C@@H](C(C)C)C(=O)N[C@@H](Cc2ccc(-c3ccccc3)cc2)C(=O)N[C@@H]([C@@H](C)CC)C(=O)N[C@@H](CCCN)C(=O)N[C@H](CC(C)C)C(=O)N[C@@H](CCN)C(=O)N[C@@H](CC(C)C)C(=O)N[C@@H](C(C)C)C(=O)N[C@@H]([C@@H](C)O)C(=O)N1)C(=O)N[C@@H](Cc1c[nH]cn1)C(=O)NCCCCCCCCCCC(=O)O [Compound 1198] ({CH2CO}-[4Pal]Y(Carboxymethyl)DWV[Bip]I[Orn][dL][Dab]LVTC[Dab][AEEA][Pra]H[Aun]-OH; thioether N-14) | 15.1
6 | C#CC[C@H](NC(=O)COCCOCCNC(=O)[C@H](CCCN)NC(=O)[C@@H]1CSCC(=O)N[C@@H](Cc2ccncc2)C(=O)N[C@@H](Cc2ccc(OCC(=O)O)cc2)C(=O)N[C@@H](CC(=O)O)C(=O)N[C@@H](Cc2c[nH]c3ccccc23)C(=O)N[C@@H](C(C)C)C(=O)N[C@@H](Cc2ccc(-c3ccccc3)cc2)C(=O)N[C@@H]([C@@H](C)CC)C(=O)N[C@@H](CCCN)C(=O)N[C@H](CC(C)C)C(=O)N[C@@H](CCN)C(=O)N[C@@H](CC(C)C)C(=O)N[C@@H](C(C)C)C(=O)N[C@@H]([C@@H](C)O)C(=O)N1)C(=O)N[C@@H](CN)C(=O)NCCCCCCCCCCC(=O)O [Compound 1199] ({CH2CO}-[4Pal]Y(Carboxymethyl)DWV[Bip]I[Orn][dL][Dab]LVTC[Orn][AEEA][Pra][Dap][Aun]-OH; thioether N-14) | 13.3
7 | C#CC[C@H](NC(=O)COCCOCCNC(=O)[C@H](CCCN)NC(=O)[C@@H]1CSCC(=O)N[C@@H](Cc2ccncc2)C(=O)N[C@@H](Cc2ccc(OCC(=O)O)cc2)C(=O)N[C@@H](CC(=O)O)C(=O)N[C@@H](Cc2c[nH]c3ccccc23)C(=O)N[C@@H](C(C)C)C(=O)N[C@@H](Cc2ccc(-c3ccccc3)cc2)C(=O)N[C@@H]([C@@H](C)CC)C(=O)N[C@@H](CCCN)C(=O)N[C@H](CC(C)C)C(=O)N[C@@H](CCN)C(=O)N[C@@H](CC(C)C)C(=O)N[C@@H](C(C)C)C(=O)N[C@@H]([C@@H](C)O)C(=O)N1)C(=O)N[C@@H](CCN)C(=O)NCCCCCCCCCCC(=O)O [Compound 1200] ({CH2CO}-[4Pal]Y(Carboxymethyl)DWV[Bip]I[Orn][dL][Dab]LVTC[Orn][AEEA][Pra][Dab][Aun]-OH; thioether N-14) | 15.6
8 | C#CC[C@H](NC(=O)COCCOCCNC(=O)[C@H](CCCN)NC(=O)[C@@H]1CSCC(=O)N[C@@H](Cc2ccncc2)C(=O)N[C@@H](Cc2ccc(OCC(=O)O)cc2)C(=O)N[C@@H](CC(=O)O)C(=O)N[C@@H](Cc2c[nH]c3ccccc23)C(=O)N[C@@H](C(C)C)C(=O)N[C@@H](Cc2ccc(-c3ccccc3)cc2)C(=O)N[C@@H]([C@@H](C)CC)C(=O)N[C@@H](CCCN)C(=O)N[C@H](CC(C)C)C(=O)N[C@@H](CCN)C(=O)N[C@@H](CC(C)C)C(=O)N[C@@H](C(C)C)C(=O)N[C@@H]([C@@H](C)O)C(=O)N1)C(=O)N[C@@H](CCCN)C(=O)NCCCCCCCCCCC(=O)O [Compound 1201] ({CH2CO}-[4Pal]Y(Carboxymethyl)DWV[Bip]I[Orn][dL][Dab]LVTC[Orn][AEEA][Pra][Orn][Aun]-OH; thioether N-14) | 7.6
9 | C#CC[C@H](NC(=O)COCCOCCNC(=O)[C@H](CCCN)NC(=O)[C@@H]1CSCC(=O)N[C@@H](Cc2ccncc2)C(=O)N[C@@H](Cc2ccc(OCC(=O)O)cc2)C(=O)N[C@@H](CC(=O)O)C(=O)N[C@@H](Cc2c[nH]c3ccccc23)C(=O)N[C@@H](C(C)C)C(=O)N[C@@H](Cc2ccc(-c3ccccc3)cc2)C(=O)N[C@@H]([C@@H](C)CC)C(=O)N[C@@H](CCCN)C(=O)N[C@H](CC(C)C)C(=O)N[C@@H](CCN)C(=O)N[C@@H](CC(C)C)C(=O)N[C@@H](C(C)C)C(=O)N[C@@H]([C@@H](C)O)C(=O)N1)C(=O)N[C@@H](CCCCN)C(=O)NCCCCCCCCCCC(=O)O [Compound 1202] ({CH2CO}-[4Pal]Y(Carboxymethyl)DWV[Bip]I[Orn][dL][Dab]LVTC[Orn][AEEA][Pra]K[Aun]-OH; thioether N-14) | 16.7
10 | C#CC[C@H](NC(=O)COCCOCCNC(=O)[C@H](CCCN)NC(=O)[C@@H]1CSCC(=O)N[C@@H](Cc2ccncc2)C(=O)N[C@@H](Cc2ccc(OCC(=O)O)cc2)C(=O)N[C@@H](CC(=O)O)C(=O)N[C@@H](Cc2c[nH]c3ccccc23)C(=O)N[C@@H](C(C)C)C(=O)N[C@@H](Cc2ccc(-c3ccccc3)cc2)C(=O)N[C@@H]([C@@H](C)CC)C(=O)N[C@@H](CCCN)C(=O)N[C@H](CC(C)C)C(=O)N[C@@H](CCN)C(=O)N[C@@H](CC(C)C)C(=O)N[C@@H](C(C)C)C(=O)N[C@@H]([C@@H](C)O)C(=O)N1)C(=O)N[C@@H](CCCNC(=N)N)C(=O)NCCCCCCCCCCC(=O)O [Compound 1203] ({CH2CO}-[4Pal]Y(Carboxymethyl)DWV[Bip]I[Orn][dL][Dab]LVTC[Orn][AEEA][Pra]R[Aun]-OH; thioether N-14) | 37.4
11 | C#CC[C@H](NC(=O)COCCOCCNC(=O)[C@H](CCCN)NC(=O)[C@@H]1CSCC(=O)N[C@@H](Cc2ccncc2)C(=O)N[C@@H](Cc2ccc(OCC(=O)O)cc2)C(=O)N[C@@H](CC(=O)O)C(=O)N[C@@H](Cc2c[nH]c3ccccc23)C(=O)N[C@@H](C(C)C)C(=O)N[C@@H](Cc2ccc(-c3ccccc3)cc2)C(=O)N[C@@H]([C@@H](C)CC)C(=O)N[C@@H](CCCN)C(=O)N[C@H](CC(C)C)C(=O)N[C@@H](CCN)C(=O)N[C@@H](CC(C)C)C(=O)N[C@@H](C(C)C)C(=O)N[C@@H]([C@@H](C)O)C(=O)N1)C(=O)N[C@@H](Cc1c[nH]cn1)C(=O)NCCCCCCCCCCC(=O)O [Compound 1204] ({CH2CO}-[4Pal]Y(Carboxymethyl)DWV[Bip]I[Orn][dL][Dab]LVTC[Orn][AEEA][Pra]H[Aun]-OH; thioether N-14) | 9.2
12 | C#CC[C@H](NC(=O)COCCOCCNC(=O)[C@H](CN)NC(=O)[C@@H]1CSCC(=O)N[C@@H](Cc2ccncc2)C(=O)N[C@@H](Cc2ccc(OCC(=O)O)cc2)C(=O)N[C@@H](CC(=O)O)C(=O)N[C@@H](Cc2c[nH]c3ccccc23)C(=O)N[C@@H](C(C)C)C(=O)N[C@@H](Cc2ccc(-c3ccccc3)cc2)C(=O)N[C@@H]([C@@H](C)CC)C(=O)N[C@@H](CCCN)C(=O)N[C@H](CC(C)C)C(=O)N[C@@H](CCN)C(=O)N[C@@H](CC(C)C)C(=O)N[C@@H](C(C)C)C(=O)N[C@@H]([C@@H](C)O)C(=O)N1)C(=O)NCCCCCCCCCCC(=O)O [Compound 1205] ({CH2CO}-[4Pal]Y(Carboxymethyl)DWV[Bip]I[Orn][dL][Dab]LVTC[Dap][AEEA][Pra][Aun]-OH; thioether N-14) | 20
